Here are results for 3 compounds from doi:10.1101/2023.03.20.532734v1 (bioRxiv, 2023).

For data set [1] the following is noted: ref [29], [30]; cited from earlier work.
Data set [2] has as its target T1, WT GLP-2R (Homo sapiens, UniProt O95838).
T1 sequence (O95838 1-553): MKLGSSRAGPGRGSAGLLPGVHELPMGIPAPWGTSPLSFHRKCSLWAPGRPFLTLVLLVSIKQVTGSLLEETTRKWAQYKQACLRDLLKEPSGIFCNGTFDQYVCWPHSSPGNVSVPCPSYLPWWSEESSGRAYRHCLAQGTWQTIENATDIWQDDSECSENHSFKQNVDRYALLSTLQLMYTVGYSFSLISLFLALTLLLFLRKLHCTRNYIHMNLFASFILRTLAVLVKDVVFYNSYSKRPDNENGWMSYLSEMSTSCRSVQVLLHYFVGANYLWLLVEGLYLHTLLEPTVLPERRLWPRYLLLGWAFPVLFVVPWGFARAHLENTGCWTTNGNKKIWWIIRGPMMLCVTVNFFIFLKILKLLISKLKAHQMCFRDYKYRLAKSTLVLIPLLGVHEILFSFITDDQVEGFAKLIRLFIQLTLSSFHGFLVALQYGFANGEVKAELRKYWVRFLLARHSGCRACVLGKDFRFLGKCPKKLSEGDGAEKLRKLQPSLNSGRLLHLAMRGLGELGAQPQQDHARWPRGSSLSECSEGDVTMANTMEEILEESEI
Put plainly: GLP-2R signaling assay, cAMP measurements. The class given is cell-based.

Residues, ends and D or L forms follow the SMILES beside them.

In the case of `CC[C@H](C)[C@H](NC(=O)[C@H](Cc1ccccc1)NC(=O)[C@H](CCC(=O)O)NC(=O)[C@H](CCCCN)NC(=O)[C@H](C)NC(=O)[C@H](C)NC(=O)[C@H](CCC(N)=O)NC(=O)CNC(=O)[C@H](CCC(=O)O)NC(=O)[C@H](CC(C)C)NC(=O)[C@H](Cc1ccc(O)cc1)NC(=O)[C@H](CO)NC(=O)[C@H](CO)NC(=O)[C@@H](NC(=O)[C@H](CC(=O)O)NC(=O)[C@H](CO)NC(=O)[C@@H](NC(=O)[C@H](Cc1ccccc1)NC(=O)[C@@H](NC(=O)CNC(=O)[C@H](CCC(=O)O)NC(=O)[C@H](C)NC(=O)[C@@H](N)Cc1c[nH]cn1)[C@@H](C)O)[C@@H](C)O)C(C)C)C(=O)N[C@@H](C)C(=O)N[C@@H](Cc1c[nH]c2ccccc12)C(=O)N[C@@H](CC(C)C)C(=O)N[C@H](C(=O)N[C@@H](CCCCN)C(=O)NCC(=O)N[C@@H](CCCN=C(N)N)C(=O)NCC(=O)O)C(C)C` [GLP-1, glucagon-like peptide 1], the “half-life, whole body metabolism in vivo” value in data set [1] is 1 to 2 min.

Consider `CC[C@H](C)[C@H](NC(=O)[C@H](Cc1ccccc1)NC(=O)[C@H](CC(=O)O)NC(=O)[C@H](CCCNC(=N)N)NC(=O)[C@H](C)NC(=O)[C@H](C)NC(=O)[C@H](CC(C)C)NC(=O)[C@H](CC(N)=O)NC(=O)[C@H](CC(=O)O)NC(=O)[C@H](CC(C)C)NC(=O)[C@@H](NC(=O)[C@@H](NC(=O)[C@H](CC(N)=O)NC(=O)[C@H](CCSC)NC(=O)[C@H](CCC(=O)O)NC(=O)[C@H](CC(=O)O)NC(=O)[C@H](CO)NC(=O)[C@H](Cc1ccccc1)NC(=O)[C@H](CO)NC(=O)CNC(=O)[C@H](CC(=O)O)NC(=O)[C@H](CO)NC(=O)[C@@H](N)Cc1c[nH]cn1)[C@@H](C)O)[C@@H](C)CC)C(=O)N[C@@H](CC(N)=O)C(=O)N[C@@H](Cc1c[nH]c2ccccc12)C(=O)N[C@@H](CC(C)C)C(=O)N[C@H](C(=O)N[C@@H](CCC(N)=O)C(=O)N[C@H](C(=O)N[C@@H](CCCCN)C(=O)N[C@H](C(=O)N[C@H](C(=O)N[C@@H](CC(=O)O)C(=O)O)[C@@H](C)O)[C@@H](C)CC)[C@@H](C)O)[C@@H](C)CC` [GLP-2 Ser2] (H-HSDGSFSDEMNTILDNLAARDFINWLIQTKITD-OH), for which the EC50 – broadly, the concentration at which the effect is half-maximal – in data set [2] was 0.265 nM. This counts as sub-nanomolar.

Consider `CC[C@H](C)[C@H](NC(=O)[C@H](Cc1ccccc1)NC(=O)[C@H](CC(=O)O)NC(=O)[C@H](CCCN=C(N)N)NC(=O)[C@H](C)NC(=O)[C@H](C)NC(=O)[C@H](CC(C)C)NC(=O)[C@H](CC(N)=O)NC(=O)[C@H](CC(=O)O)NC(=O)[C@H](CC(C)C)NC(=O)[C@@H](NC(=O)[C@@H](NC(=O)[C@H](CC(N)=O)NC(=O)[C@H](CCSC)NC(=O)[C@H](CCC(=O)O)NC(=O)[C@H](CC(=O)O)NC(=O)[C@H](CO)NC(=O)[C@H](Cc1ccccc1)NC(=O)[C@H](CO)NC(=O)CNC(=O)[C@H](CC(=O)O)NC(=O)[C@H](C)NC(=O)[C@@H](N)Cc1cnc[nH]1)[C@@H](C)O)[C@@H](C)CC)C(=O)N[C@@H](CC(N)=O)C(=O)N[C@@H](Cc1c[nH]c2ccccc12)C(=O)N[C@@H](CC(C)C)C(=O)N[C@H](C(=O)N[C@@H](CCC(N)=O)C(=O)N[C@H](C(=O)N[C@@H](CCCCN)C(=O)N[C@H](C(=O)N[C@H](C(=O)N[C@@H](CC(=O)O)C(=O)O)[C@@H](C)O)[C@@H](C)CC)[C@@H](C)O)[C@@H](C)CC` [GLP-2, glucagon-like peptide 2], for which the “half-life, whole body metabolism in vivo” value in data set [1] is listed as 7 min.
